Measured values reported in PubChem BioAssay (NCI).
Values joined by “and” are separate entries in the source; they are usually repeats but may differ in a detail not shown here. Equal values may be shown once.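 Five compound concentrations were applied to cells in 96-well plates for 48 hours; endpoints were derived by simple linear interpolation of the resulting dose-response curve. GI50 marks 50% less growth. At the TGI there is no net growth.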

What was measured:
Test in all cases: DTP human tumour cell line panel, 48 h
[1] = system: 786-0 renal
[2] = system: HOP-92 NSCLC
[3] = system: HS 578T breast
[4] = system: K-562 leukemia
[5] = system: MCF7 breast
[6] = system: SF-268 CNS
[7] = system: SK-MEL-2 melanoma
[8] = system: EKVX NSCLC
[9] = system: SW-620 colon
[10] = system: BT-549 breast

Structure (SMILES)	GI50 [1] [µM]	TGI [1] [µM]	GI50 [2] [µM]	TGI [2]	GI50 [3] [µM]	TGI [3] [µM]	GI50 [4] [µM]	TGI [4] [µM]	GI50 [5] [µM]	TGI [5]	GI50 [6] [µM]	TGI [6]	GI50 [7] [µM]	TGI [7] [µM]	TGI [8]	TGI [9]	GI50 [10] [µM]	TGI [10] [µM]	GI50 [8] [µM]	GI50 [9] [µM]
O=C1C(Nc2cccc(O)c2)=C(Sc2ccc(Cl)cc2)C(=O)N1Cc1ccccc1	17.8	50	4.73	30.7 µM	13.3	58.1	3.81	29.6	5.86	> 100 µM	8.73	44.6 µM	28.3	> 100	–	–	–	–	–	–
COC(=O)C1CCC(N2C(=O)CCC2C(=O)OC)=N1 (stereo not drawn)	–	> 100	–	> 100 µM	–	–	–	> 100	–	–	–	> 100 µM	–	> 100	> 100 µM	> 100 µM	–	–	–	–
CN(C(=O)C1CC1)C1C2CN3CCC(O2)C13 (stereo not drawn)	–	> 100	–	> 100 µM	–	–	–	> 100	–	–	–	> 100 µM	–	> 100	> 100 µM	> 100 µM	–	–	–	–
COc1cc(C(=C2SCCS2)c2nccc3cc(OC)c(OC)cc23)c([N+](=O)[O-])cc1OC	–	> 100	–	> 100 µM	–	–	–	> 100	–	–	–	> 100 µM	–	> 100	> 100 µM	> 100 µM	–	–	–	–
CCCCc1oc2ccccc2c1C(=O)c1cc(I)c(OCCN(CC)CC)c(I)c1	1.64	3.31	0.625	2.46 µM and 10.3 µM	–	–	–	9.87	1.78	3.71 µM and 10.8 µM	3.28	14 µM and 38.9 µM	–	–	14.8 µM and 47.1 µM	4.13 µM and 9.18 µM	3.26	9.38	2.86	1.76
CCCCCCCCCCCCCCCCCCOCC1(COP(=O)([O-])OCC[N+](C)(C)C)CCCO1 (stereo not drawn)	–	13.6	–	6.09 µM	–	–	–	31.7	–	–	–	18.2 µM	–	22.8	–	–	–	–	–	–
Cn1c(=O)c2[nH]cnc2n(CC(=O)O)c1=O	–	> 100	–	> 100 µM	–	–	–	> 100	–	–	–	> 100 µM	–	> 100	> 100 µM	> 100 µM	–	–	–	–
NC(=O)C12CCC1C1CCCCC12N1CCOCC1 (stereo not drawn)	–	> 100	–	> 100 µM	–	–	–	> 100	–	–	–	> 100 µM	–	> 100	> 100 µM	> 100 µM	–	–	–	–
CC(C)[C@H](O)C(=O)N[C@H]1Cc2ccc3c(c2)[C@]24C5=C(N=C(O5)[C@H](C(C)C)NC1=O)c1nc(Cl)c(o1)-c1c(Cl)[nH]c5cccc(c15)-c1cccc2c1N[C@H]4O3	0.00279	2.77	–	–	–	> 10	< 0.001	> 10	< 0.001	> 10 µM	< 0.001	7.32 µM	–	–	> 10 µM	> 10 µM	–	–	–	0.0017
C[n+]1ccc2[nH]c3ccccc3c2c1	–	> 100	–	> 100 µM	–	–	–	> 100	–	–	–	> 100 µM	–	> 100	> 100 µM	> 100 µM	–	–	–	–
COC(=O)NN=C1C(C)(C)C(=NNC(=O)OC)C1(C)C	–	> 100	–	> 100 µM	–	–	–	> 100	–	–	–	> 100 µM	–	> 100	> 100 µM	> 100 µM	–	–	–	–
C=CC1=C(C)C(Cc2[nH]c(/C=c3\[nH]/c(=C/C4=NC(=O)C(C)/C4=C\C)c(C)c3CCC(=O)O)c(CCC(=O)OC)c2C)NC1=O (stereo not drawn)	22	62.5	19.6	51.6 µM	–	–	25.7	61.9	26.7	> 100 µM	21.2	59.5 µM	20.1	39.4	> 100 µM	61.4 µM	–	–	47.7	25.4
O=C(Cc1nc2ccccc2s1)C(=O)Nc1ccc(Cl)cc1Cl	–	> 100	–	> 100 µM	–	–	–	> 100	–	–	–	> 100 µM	–	> 100	–	> 100 µM	–	–	–	–
CCC[CH2][Sn]1([CH2]CCC)[O]CC([CH2][Sn]([c]2ccccc2)([c]2ccccc2)[c]2ccccc2)[O]1 (stereo not drawn)	11.8	24.5	11.9	25.7 µM	–	–	2.98	13.6	–	–	6.79	19 µM	10.9	23.4	26.3 µM	15.7 µM	–	–	13.4	3.9
CN(C)NC(=S)NC12CC3CC(CC(C3)C1)C2	–	> 100	–	> 100 µM	–	–	–	> 100	–	–	–	> 100 µM	–	> 100	> 100 µM	> 100 µM	–	–	–	–
CC(=O)[CH-]C(=O)c1ccccc1.CC(=O)[CH-]C(=O)c1ccccc1.CC12CC3(C)CC(C)(C1)CC([O-])(C2)C3.CC[O-].[Ti+4]	29.3	> 100	19.1	55.3 µM	–	–	34.4	> 100	–	–	18.6	45.4 µM	–	–	–	> 100 µM	–	–	–	32.4
